Data: patent US10647690B2, “2,3-epoxy succinyl derivative, preparation method and use thereof” (Institute of Pharmacology and Toxicology Academy of …, priority 2016, dated 2020)
Where two headings read alike, the source gives them in different places.

Columns and labels:
Assay type in all cases: biochemical
[1] = molecular target: T1, Cathepsin S (Homo sapiens, UniProt P25774); test: IC50 determination against Cathepsin S (Biovision kit K149-100); settings: CTSS
T1 construct: purchased Biovision K149-100
Description: (§1) 2. Method for determining IC50 of compounds against cathepsin:
IC50 of compounds against Cathepsin S was determined by using Cathepsin S Inhibitor Screening Kit (Product No. K149-100) from Biovision Company.
2.1.1.4 Preparation of Cathepsin S solution: Cathepsin S enzyme (46 μl) was added to Cathepsin S buffer (2254 μl), and mixed well, to prepare Cathepsin S enzyme solution with a volume of 2.3 ml, which was placed on ice for further use.
(§2) 2.1.2 Preparation of compound solutions: 30 mM and 10 mM compound stock solutions, and control compounds were gradiently diluted in DMSO at a ratio of 1:3, wherein the maximum dilution fold was 19683; the gradiently diluted compound solution (3 μl) was added to Cathepsin K, B, L, and S buffer (27 μl), respectively, and mixed well, wherein the control compounds (FF-FMK, F-F-FMK, FF-FMK and Z-FF-FMK) were at the concentrations of 66.67, 22.22, 7.41, 2.47, 0.82, 0.27, 0.091, 0.03, 0.01, 0.0034 and 0 μM, respectively, the test compounds were at the concentrations of 1000, 333.3, 111.1, 37, 12.3, 4.1, 1.4, 0.46, 0.15, 0.05 and 0 μM, respectively, and the final concentration of DMSO was 10%.
2.1.3.4 Cathepsin S: Cathepsin S substrate (90 μl) was added to Cathepsin S buffer (1710 μl), and mixed well, to prepare Cathepsin S substrate solution with a volume of 1.8 ml, which was placed on ice for further use.
(§3) Method for screening cathepsin inhibitors: the cathepsin solution (prepared in Item 2.1.1) was added to a 384-well plate (ProxiPlate-384 Plus, Perkinelmer) at 10 μl/well, and centrifuged at 1000 rpm for Imin; the compound solution (prepared in Item 2.1.2) was then added at 2 μl/well, and every concentration was repeated in two wells; the final concentrations of the test compounds were 100, 33.3, 11.1, 3.7, 1.23, 0.41, 0.14, 0.046, 0.015, 0.005 and 0 μM, respectively, wherein the final concentration of DMSO was 1%; after centrifugation at 1000 rpm for 1 min, the plate was put in a 25° C. incubator for 15 min; the cathepsin substrate solution was then added at 8 µl/well, and centrifuged at 1000 rpm for 1 min; and finally, the fluorescence signal was read in Enspire, wherein the exciting light was at a wavelength of 400 nm, the emitting light was at a wavelength of 505 nm, and continuous reading was performed at 37° C. for 120 min.
(§4) Data analysis: the slope (S) for all the samples was calculated by ΔRFU(RFU2−RFU1) and time ΔT(T2−T1), including negative control (Enzyme Control, EC) and positive control (Inhibitor Control, IC: 10 μM (FF-FMK, F-F-FMK, FF-FMK and Z-FF-FMK), and the calculation formula was as followed: Relative inhibition rate %=(SEC−SS)/(SEC−SIC)*100. The IC50 for each compound was obtained by means of fitting by software GraphPad Prism 5.0.

[2] = molecular target: T2, Cathepsin B (Homo sapiens, UniProt P07858); test: IC50 determination against Cathepsin B (Biovision kit K147-100); settings: for Selectiviy vs Cathepsin K (fold): selectivity for Cathepsin B over Cathepsin K; for Selectiviy vs Cathepsin L (fold): selectivity for Cathepsin B over Cathepsin L; for Selectiviy vs Cathepsin S (fold): selectivity for Cathepsin B over Cathepsin S; for selectivity for Cathepsin B: statement in words, versus Cathepsin K, L, S
T2 construct: purchased Biovision K147-100
Description: as §1
IC50 of compounds against Cathepsin B was determined by using Cathepsin B Inhibitor Screening Kit (Product No. K147-100) from Biovision Company;
2.1.1.2 Preparation of Cathepsin B solution: Cathepsin B enzyme (23 μl) and Cathepsin B reagent (46 μl) were added to Cathepsin B buffer (2231 μl), and mixed well, to prepare Cathepsin B enzyme solution with a volume of 2.3 ml, which was placed on ice for further use.
as §2
2.1.3.2 Cathepsin B: Cathepsin B substrate (90 μl) was added to Cathepsin B buffer (1710 μl), and mixed well, to prepare Cathepsin B substrate solution with a volume of 1.8 ml, which was placed on ice for further use.
as §3, §4

[3] = molecular target: T3, Cathepsin K (Homo sapiens, UniProt P43235); test: IC50 determination against Cathepsin K (Biovision kit K150-100); settings: CTSK
T3 construct: purchased Biovision K150-100
T3 sequence (P43235 115-329): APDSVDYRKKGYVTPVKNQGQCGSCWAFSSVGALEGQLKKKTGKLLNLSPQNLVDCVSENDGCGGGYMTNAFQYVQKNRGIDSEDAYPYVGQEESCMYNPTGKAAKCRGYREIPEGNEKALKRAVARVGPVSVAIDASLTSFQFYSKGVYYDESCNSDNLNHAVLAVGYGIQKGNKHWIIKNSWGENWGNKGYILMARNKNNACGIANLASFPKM
Description: as §1
IC50 of compounds against Cathepsin K was determined by using Cathepsin K Inhibitor Screening Kit (Product No. K150-100) from Biovision Company;
2.1.1.1 Preparation of Cathepsin K solution: Cathepsin K enzyme (23 μl) and Cathepsin K reagent (46 μl) were added to Cathepsin K buffer (2231 μl), and mixed well, to prepare Cathepsin K enzyme solution with a volume of 2.3 ml, which was placed on ice for further use.
as §2
2.1.3.1 Cathepsin K: Cathepsin K substrate (90 μl) was added to Cathepsin K buffer (1710 μl), and mixed well, to prepare Cathepsin K substrate solution with a volume of 1.8 ml, which was placed on ice for further use.
as §3, §4

[4] = molecular target: T4, Cathepsin L (Homo sapiens, UniProt P07711); test: IC50 determination against Cathepsin L (Biovision kit K161-100); settings: CTSL
T4 construct: purchased Biovision K161-100
Description: as §1
IC50 of compounds against Cathepsin L was determined by using Cathepsin L Inhibitor Screening Kit (Product No. K161-100) from Biovision Company;
2.1.1.3 Preparation of Cathepsin L solution: Cathepsin L reagent (3 μl) was added to Cathepsin L enzyme (3 μl), mixed well, and on standing for 1 h, to get 1 mU/μl Cathepsin L enzyme solution. Cathepsin L buffer (24 μl) was added to 1 mU/μl cathepsin L enzyme solution (6 μl), to get 0.2 mU/μl Cathepsin L enzyme solution. 0.2 mU/μl cathepsin L enzyme (23 μl), and DTT (46 μl) were added to Cathepsin L buffer (2231 μl), and mixed well, to prepare Cathepsin L enzyme solution with a volume of 2.3 ml, which was placed on ice for further use.
as §2
2.1.3.3 Cathepsin L: Cathepsin L substrate (45 μl) was added to Cathepsin L buffer (1755 μl), and mixed well, to prepare Cathepsin L substrate solution with a volume of 1.8 ml, which was placed on ice for further use.
as §3, §4

[5] = Exp-1, read-out: IC50 (nM) Exp-1
[6] = Exp-2, read-out: IC50 (nM) Exp-2
[7] = average of Exp-1 and Exp-2, read-out: Ave of IC50
[8] = CTSB, Exp-1, read-out: IC50 (nM) Exp-1
[9] = CTSB, Exp-2, read-out: IC50 (nM) Exp-2
[10] = CTSB, average of Exp-1 and Exp-2, read-out: Ave of IC50
[11] = Table 3, average ± STDEV, read-out: Cathepsin B IC50

T1 sequence (P25774 115-331): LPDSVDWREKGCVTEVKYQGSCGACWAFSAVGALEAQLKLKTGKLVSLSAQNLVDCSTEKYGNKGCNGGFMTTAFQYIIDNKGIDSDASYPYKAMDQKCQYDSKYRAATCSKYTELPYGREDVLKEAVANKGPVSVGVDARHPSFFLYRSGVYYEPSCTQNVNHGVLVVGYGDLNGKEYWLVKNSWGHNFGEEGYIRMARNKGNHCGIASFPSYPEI
T4 sequence (P07711 114-333): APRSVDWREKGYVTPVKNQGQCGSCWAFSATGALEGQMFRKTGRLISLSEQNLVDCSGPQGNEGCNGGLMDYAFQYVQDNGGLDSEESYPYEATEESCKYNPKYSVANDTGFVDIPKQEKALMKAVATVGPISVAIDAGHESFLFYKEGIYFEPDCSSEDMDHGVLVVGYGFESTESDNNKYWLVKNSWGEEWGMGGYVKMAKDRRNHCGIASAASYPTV

Compound	IC50 [1, 5]	IC50 [1, 6]	IC50 [1, 7]	IC50 [2, 8]	IC50 [2, 9]	IC50 [2, 10]	IC50 [2, 11]	Selectiviy vs Cathepsin K (fold) [2]	Selectiviy vs Cathepsin L (fold) [2]	Selectiviy vs Cathepsin S (fold) [2]	selectivity for Cathepsin B [2]	IC50 [3, 5]	IC50 [3, 6]	IC50 [3, 7]	IC50 [4, 5]	IC50 [4, 6]	IC50 [4, 7]
CCCCCCNC(=O)[C@H](CCSC)NC(=O)[C@H]1O[C@@H]1C(=O)OCC [Compound 5, (2s, 3s)-2-ethoxycarbonyl-3-[2-[(s)-4-methylthio-1-carbonyl-1-(hexylamino)butane]formylamino]epoxysuccinic acid]	4080 nM	4140 nM	4110 nM	7.19 nM	9.33 nM	8.27 nM	8.27 ± 1.51 nM	181 fold	278 fold	497 fold	strong selectivity for Cathepsin B	1680 nM	1320 nM	1500 nM	2270 nM	2330 nM	2300 nM
CCOC(=O)[C@H]1O[C@@H]1C(=O)N[C@@H](CCSC)C(=O)NCCCc1ccccc1 [Compound 8, (2s, 3s)-2-ethoxycarbonyl-3-[2-[(s)-4-methylthio-1-carbonyl-1-(3-phenylpropylamino)butane]formylamino]epoxysuccinic acid]	10600 nM	9450 nM	10000 nM	17.6 nM	20.7 nM	19.2 nM	19.2 ± 2.26 nM	116 fold	210 fold	524 fold	strong selectivity for Cathepsin B	2950 nM	1500 nM	2220 nM	3610 nM	4450 nM	4030 nM
CCOC(=O)[C@H]1O[C@@H]1C(=O)N[C@@H](CCSC)C(=O)N1CCC(c2ccccc2)CC1 [Compound 13, (2s, 3s)-2-ethoxycarbonyl-3-[2-[(s)-4-methylthio-1-carbonyl-1-(phenylpiperidinyl)butane]formylamino]epoxysuccinic acid]	1900 nM	957 nM	1430 nM	3.76 nM	4.64 nM	4.2 nM	4.2 ± 0.63 nM	40 fold	1563 fold	357 fold	strong selectivity for Cathepsin B	180 nM	148 nM	164 nM	5880 nM	6630 nM	6250 nM

Results, then the compound that gave them:

IC50 [1, 5]	IC50 [1, 6]	IC50 [1, 7]	IC50 [2, 8]	IC50 [2, 9]	IC50 [2, 10]	IC50 [2, 11]	Selectiviy vs Cathepsin K (fold) [2]	Selectiviy vs Cathepsin L (fold) [2]	Selectiviy vs Cathepsin S (fold) [2]	selectivity for Cathepsin B [2]	IC50 [3, 5]	IC50 [3, 6]	IC50 [3, 7]	IC50 [4, 5]	IC50 [4, 6]	IC50 [4, 7]	Compound
1600 nM	1660 nM	1630 nM	22.3 nM	25.9 nM	24.1 nM	24.1 ± 2.59 nM	21 fold	–	167 fold	strong selectivity for Cathepsin B	586 nM	448 nM	517 nM	338 nM	382 nM	360 nM	CCOC(=O)[C@H]1O[C@@H]1C(=O)N[C@@H](CCSC)C(=O)NCCc1cccc(F)c1 [Compound 34, (2s, 3s)-2-ethoxycarbonyl-3-[2-[(s)-4-methylthio-1-carbonyl-1-(3-fluorophenylethylamino)butane]formylamino]epoxysuccinic acid]
5110 nM	8750 nM	6930 nM	68.5 nM	80 nM	74.3 nM	74.3 ± 8.18 nM	22 fold	129 fold	193 fold	strong selectivity for Cathepsin B	1680 nM	1610 nM	1650 nM	9250 nM	9950 nM	9600 nM	CCOC(=O)[C@H]1O[C@@H]1C(=O)N[C@@H](CCSC)C(=O)NC(CC)CC [Compound 39, (2s, 3s)-2-ethoxycarbonyl-3-[2-[(s)-4-methylthio-1-carbonyl-1-(1-ethylpropylamino)butane]formylamino]epoxysuccinic acid]
